Converted amounts (≈) assume the structure as drawn.
Key:
Adenosine receptor A3 = biological target: T1, Adenosine receptor A3 (Homo sapiens, UniProt P0DMS8); test: biochemical
T1 sequence (P0DMS8 whole entry): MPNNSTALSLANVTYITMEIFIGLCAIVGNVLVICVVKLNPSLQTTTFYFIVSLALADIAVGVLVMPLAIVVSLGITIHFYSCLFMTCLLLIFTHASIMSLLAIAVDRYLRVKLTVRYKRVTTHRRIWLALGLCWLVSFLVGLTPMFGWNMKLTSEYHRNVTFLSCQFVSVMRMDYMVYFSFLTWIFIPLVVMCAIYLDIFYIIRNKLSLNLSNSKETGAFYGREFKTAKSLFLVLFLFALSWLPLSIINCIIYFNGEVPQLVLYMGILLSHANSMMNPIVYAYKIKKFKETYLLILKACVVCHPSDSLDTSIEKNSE
Description: Displacement of [3H]HEMADO from recombinant human adenosine A3 receptor expressed in CHO cell membrane after 3 hrs by microbeta scintillation counting method

Adenosine receptor A2b = biological target: T2, Adenosine receptor A2b (Homo sapiens, UniProt P29275); test: Antagonist activity at recombinant human adenosine A2B receptor expressed in CHOK1 cell membrane assessed as inhibition of NECA-stimulated adenylyl cyclase activity incubated for 20 mins in presence of [alpha32P]ATP; type: functional, cell-based, CHO-K1
T2 sequence (P29275 whole entry): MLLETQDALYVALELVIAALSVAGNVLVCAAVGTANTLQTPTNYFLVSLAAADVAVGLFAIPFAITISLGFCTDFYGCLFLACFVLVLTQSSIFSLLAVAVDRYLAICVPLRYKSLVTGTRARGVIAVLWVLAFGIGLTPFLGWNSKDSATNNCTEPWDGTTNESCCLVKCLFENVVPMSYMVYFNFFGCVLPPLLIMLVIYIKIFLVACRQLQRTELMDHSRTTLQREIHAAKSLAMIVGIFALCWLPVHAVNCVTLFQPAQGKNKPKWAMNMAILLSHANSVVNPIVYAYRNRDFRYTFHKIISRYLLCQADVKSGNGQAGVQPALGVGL

Adenosine receptor A1 = biological target: T3, Adenosine receptor A1 (Homo sapiens, UniProt P30542); test: Displacement of [3H]CCPA from recombinant human adenosine A1 receptor expressed in CHO cell membrane after 3 hrs by microbeta scintillation counting method; type: cell membranes
T3 sequence (P30542 whole entry): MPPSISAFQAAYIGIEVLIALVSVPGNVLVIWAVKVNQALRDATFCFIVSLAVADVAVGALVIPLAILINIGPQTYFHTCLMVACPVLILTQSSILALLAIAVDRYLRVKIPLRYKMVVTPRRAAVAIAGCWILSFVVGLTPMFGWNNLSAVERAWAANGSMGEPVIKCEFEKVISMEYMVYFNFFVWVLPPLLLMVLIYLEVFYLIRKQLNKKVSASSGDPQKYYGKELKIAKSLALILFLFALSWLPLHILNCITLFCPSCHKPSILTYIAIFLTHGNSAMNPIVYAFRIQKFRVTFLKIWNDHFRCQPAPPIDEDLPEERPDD

Adenosine receptor A2a [1] = biological target: T4, Adenosine receptor A2a (Homo sapiens, UniProt P29274); test: Displacement of [3H]NECA from recombinant human adenosine A2A receptor expressed in CHO cell membrane after 3 hrs by microbeta scintillation counting method; type: cell membranes
Adenosine receptor A2a [2] = biological target: T4, Adenosine receptor A2a; test: Partial agonist activity at recombinant human adenosine A2A receptor expressed in CHOK1 cell membrane assessed as adenylyl cyclase activity at 1 to 100 uM incubated for 20 mins in presence of [alpha32P]ATP relative to NECA; type: functional, cell-based; conditions: CHO-K1
Adenosine receptor A2a [3] = biological target: T4, Adenosine receptor A2a; test: Partial agonist activity at recombinant human adenosine A2A receptor expressed in CHOK1 cell membrane assessed as adenylyl cyclase activity at 100 uM incubated for 20 mins in presence of [alpha32P]ATP relative to NECA; type: functional, cell-based; conditions: CHO-K1
[4] = Thermodynamic equilibrium solubility of compound in phosphate buffered saline at 1 to 300 ug after overnight incubation by microplate reader analysis; type: physicochemical; conditions: read-out: Therm_solubility
[5] = Thermodynamic equilibrium solubility of compound in simulated gastric fluid at 1 to 300 ug after overnight incubation by microplate reader analysis; type: ADME; conditions: read-out: Therm_solubility
CHO [6] = test: Selectivity ratio of Ki for recombinant human adenosine A1 receptor expressed in CHO cell membrane to Ki for recombinant human adenosine A2A receptor expressed in CHO cell membrane; type: cell-based
CHO [7] = test: Selectivity ratio of Ki for recombinant human adenosine A3 receptor expressed in CHO cell membrane to Ki for recombinant human adenosine A2A receptor expressed in CHO cell membrane; type: cell-based
[8] = Thermodynamic equilibrium solubility of compound in water at 1 to 300 ug after overnight incubation by microplate reader analysis; type: physicochemical; conditions: read-out: Therm_solubility

T4 sequence (P29274 whole entry): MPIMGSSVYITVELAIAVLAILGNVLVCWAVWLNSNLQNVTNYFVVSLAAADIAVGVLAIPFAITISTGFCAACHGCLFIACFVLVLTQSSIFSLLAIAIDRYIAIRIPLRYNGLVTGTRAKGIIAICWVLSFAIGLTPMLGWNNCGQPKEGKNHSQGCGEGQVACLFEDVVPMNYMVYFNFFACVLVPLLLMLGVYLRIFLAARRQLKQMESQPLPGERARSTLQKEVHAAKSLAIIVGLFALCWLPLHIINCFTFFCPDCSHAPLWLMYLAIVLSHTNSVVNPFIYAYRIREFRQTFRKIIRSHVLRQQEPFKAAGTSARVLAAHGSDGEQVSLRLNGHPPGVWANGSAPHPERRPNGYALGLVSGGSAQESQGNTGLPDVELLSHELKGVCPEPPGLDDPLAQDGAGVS

| SMILES | Ki (Adenosine receptor A3) [µM] | Ki (Adenosine receptor A2b) [µM] | Ki (Adenosine receptor A1) [µM] | Ki (Adenosine receptor A2a [1]) [µM] | Efficacy (Adenosine receptor A2a [2]) [%] | Efficacy (Adenosine receptor A2a [3]) [%] | solubility thermodynamic [4] [µg/mL] | solubility thermodynamic [5] [µg/mL] | Ratio Ki (CHO [6]) | Ratio Ki (CHO [7]) | solubility thermodynamic [8] [µg/mL] |
| --- | --- | --- | --- | --- | --- | --- | --- | --- | --- | --- | --- |
| O=C(Nc1nc2c(Cl)ncnc2s1)c1ccccc1 | 7.33 | > 10 | 7.24 | 1.5 | – | – | – | – | – | – | – |
| c1ccc(Nc2nc3c(N4CCCCC4)ncnc3s2)cc1 | 12.1 | > 10 | > 30 | 0.98 | – | – | – | – | – | – | – |
| c1ccc(Nc2nc3c(N4CCNCC4)ncnc3s2)cc1 | > 10 | > 10 | > 30 | 9.09 | – | – | – | – | – | – | – |
| Clc1ccc(Nc2nc3c(N4CCCC4)ncnc3s2)cc1 | 4.26 | > 10 | > 100 | 2.06 | 10 | – | – | – | – | – | – |
| O=[N+]([O-])c1ccc(Nc2nc3c(N4CCCC4)ncnc3s2)cc1 | 3.63 | > 10 | > 30 | 3.18 | – | – | – | – | – | – | – |
| COc1cc(Nc2nc3c(N4CCC[C@H]4CO)ncnc3s2)cc(OC)c1OC | 1.46 | > 10 | 0.974 | 0.33 | – | 50 | – | – | – | – | – |
| OC[C@@H]1CCCN1c1ncnc2sc(Nc3ccccc3)nc12 | 0.978 | > 10 | 0.555 | 0.2 | – | 50 | 4800 (≈ 14.7 mM) | 3500 (≈ 10.7 mM) | 3 | 3 | 4300 (≈ 13.1 mM) |
| c1ccc(Nc2nc3c(N4CCC(N5CCCCC5)CC4)ncnc3s2)cc1 | > 100 | > 10 | > 100 | > 100 | – | – | – | – | – | – | – |
| Cc1ccc(Nc2nc3c(N4CCC[C@H]4CO)ncnc3s2)cc1 | 0.843 | > 10 | 0.399 | 0.313 | – | 50 | – | – | – | – | – |
| CN(C)c1ncnc2sc(Nc3ccc(Cl)cc3)nc12 | > 10 | > 10 | > 100 | > 100 | – | – | – | – | – | – | – |
| c1ccc(Nc2nc3c(N4CCCC4)ncnc3s2)cc1 | 8.63 | > 10 | > 30 | 0.351 | 10 | – | – | – | – | – | – |
| OC[C@@H]1CCCN1c1ncnc2sc(Nc3ccc(Cl)cc3)nc12 | 0.934 | > 10 | 0.629 | 0.466 | – | 50 | – | – | – | – | – |
| Brc1cccc(Nc2nc3c(N4CCCC4)ncnc3s2)c1 | 1.29 | > 10 | > 100 | 0.245 | 10 | – | – | – | – | – | > 150 |
| CN(C)c1ncnc2sc(Nc3ccccc3)nc12 | 1.28 | > 10 | > 100 | 1.27 | – | – | – | – | – | – | – |
| Clc1ncnc2sc(Nc3ccccc3)nc12 | 3.67 | > 10 | > 100 | 1.52 | – | – | – | – | – | – | – |
| COc1ccc(Nc2nc3c(Cl)ncnc3s2)cc1 | 5.88 | > 10 | 11.5 | 3.57 | – | – | – | – | – | – | – |
| Clc1ncnc2sc(Nc3cccc(Br)c3)nc12 | 3.9 | > 10 | 12.6 | 2.96 | – | – | – | – | – | – | – |
| COc1cc(Nc2nc3c(Cl)ncnc3s2)cc(OC)c1OC | 2.65 | > 10 | > 100 | 1.05 | – | – | – | – | – | – | – |
| CN1CCN(c2ncnc3sc(Nc4ccc(Cl)cc4)nc23)CC1 | > 10 | > 10 | > 100 | > 100 | – | – | – | – | – | – | – |

| SMILES | Ki (Adenosine receptor A3) [µM] | Ki (Adenosine receptor A2b) [µM] | Ki (Adenosine receptor A1) [µM] | Ki (Adenosine receptor A2a [1]) [µM] | Efficacy (Adenosine receptor A2a [2]) [%] | Efficacy (Adenosine receptor A2a [3]) [%] | solubility thermodynamic [4] [µg/mL] | solubility thermodynamic [5] [µg/mL] | Ratio Ki (CHO [6]) | Ratio Ki (CHO [7]) | solubility thermodynamic [8] [µg/mL] |
| --- | --- | --- | --- | --- | --- | --- | --- | --- | --- | --- | --- |
| CCN1CCN(c2ncnc3sc(Nc4ccccc4)nc23)CC1 | > 30 | > 10 | > 100 | 8.39 | – | – | – | – | – | – | – |
| COc1ccc(Nc2nc3c(N4CCC[C@H]4CO)ncnc3s2)cc1 | 0.594 | > 10 | 0.713 | 1.11 | – | – | – | – | – | – | – |
| CN1CCN(c2ncnc3sc(Nc4ccccc4)nc23)CC1 | 4.31 | > 10 | > 30 | 2.84 | – | – | – | – | – | – | – |
| Cc1ccc(Nc2nc3c(Cl)ncnc3s2)cc1 | 4.64 | > 10 | > 100 | 4.93 | – | – | – | – | – | – | – |
| Cc1ccc(Nc2nc3c(N4CCCC4)ncnc3s2)cc1 | 0.563 | > 10 | > 100 | 0.974 | 10 | – | – | – | – | – | > 150 |
| Clc1ccc(Nc2nc3c(Cl)ncnc3s2)cc1 | 4.94 | > 10 | 25 | 2.69 | – | – | – | – | – | – | – |
| Clc1ccc(Nc2nc3c(N4CCOCC4)ncnc3s2)cc1 | > 100 | > 10 | > 100 | 1.4 | – | – | – | – | – | – | – |
| Fc1cccc(F)c1Nc1nc2c(Cl)ncnc2s1 | 17.2 | > 10 | 17.8 | 8.11 | – | – | – | – | – | – | – |
| COc1cc(Nc2nc3c(N4CCCC4)ncnc3s2)cc(OC)c1OC | 1.28 | > 10 | > 100 | 0.102 | 10 | – | – | – | > 100 | 12 | – |
| c1ccc(Nc2nc3c(N4CCOCC4)ncnc3s2)cc1 | 4.46 | > 10 | > 100 | 0.333 | – | – | – | – | > 3000 | 13 | – |
| OC[C@@H]1CCCN1c1ncnc2sc(Nc3cccc(Br)c3)nc12 | 1.07 | > 10 | 0.53 | 0.153 | – | 50 | – | – | 3 | 3 | 160 (≈ 0.394 mM) |
| S=C(NCc1ccccc1)N(Cc1ccccc1)c1nc2c(Cl)ncnc2s1 | – | > 10 | > 30 | 1.87 | – | – | – | – | – | – | – |
| Clc1ccc(Nc2nc3c(N4CCCCC4)ncnc3s2)cc1 | 18.3 | > 10 | > 100 | 13.2 | – | – | – | – | – | – | – |
| Fc1cccc(F)c1Nc1nc2c(N3CCCC3)ncnc2s1 | 3.19 | > 10 | 2.31 | 2.26 | 10 | – | – | – | – | – | – |
| CCN(CC)c1ncnc2sc(Nc3ccccc3)nc12 | > 30 | > 10 | > 100 | 2.21 | – | – | – | – | – | – | – |
| CCN(CC)c1ncnc2sc(Nc3ccc(Cl)cc3)nc12 | 3.89 | > 10 | 16.5 | 11.2 | – | – | – | – | – | – | – |
| OC[C@@H]1CCCN1c1ncnc2sc(Nc3c(F)cccc3F)nc12 | 3.42 | > 10 | 7.97 | 3.26 | – | 50 | – | – | – | – | – |
| Clc1ncnc2sc(NCCN3CCOCC3)nc12 | > 100 | > 10 | > 100 | > 100 | – | – | – | – | – | – | – |
| O=[N+]([O-])c1ccc(Nc2nc3c(Cl)ncnc3s2)cc1 | 7.95 | > 10 | > 30 | > 30 | – | – | – | – | – | – | – |
